Laboratory results reported in patent publication US6849602B1 (The Regents of the University of California, priority 1996, dated 2005).
Entries after “also recorded” stand apart in the source; their conditions may differ. Non-standard residues stand in square brackets, D forms with d. No end group written: not given here.

What was measured:
taxol-treated mice = assay: Loss of thermal sensation (Hargreaves) in taxol-treated mice; assay type: in vivo, mouse; settings: 100 μg/kg, 200 μg/kg or 1 mg/kg
Protocol: Mice were administered taxol in order to induce sensory neuropathy.
The loss of thermal sensation was measured using a Hargreaves sensory testing apparatus as an indicator of sensory neuropathy.

[1] = system: Newborn mouse cerebellar explants; assay: Ex vivo myelination assay in newborn mouse cerebellar explants; assay type: cell-based; settings: 10 μg/ml
Protocol: Newborn mouse cerebellar explants are prepared according to Satomi, Zool. Sci. 9:127-137 (1992). Neurite outgrowth and myelination are observed over 22 days in culture, during the period when the newborn mouse cerebellum normally undergoes neuronal differentiation and myelination begins. […] Neurite outgrowth and myelination in three control and three treated explants is assessed under a bright field microscope with a video camera. On the eighth day, cultures containing the peptides are thinner and more spread out than control cultures. […] Such projections are absent or less prominent in control cultures. […] Thus, the peptide of the invention induces myelination in differentiating cerebellum ex vivo.

STZ-diabetic rats = assay: Nerve function, thermal response and body weight in STZ-diabetic rats; assay type: in vivo, rat; settings: for decline in SNCV between weeks 4 and 8 of diabetes: 200 μg/kg i.p. thrice weekly beginning after 4 weeks of diabetes
Protocol: Control and STZ-diabetic rats were treated using 1000 μg prosaptide TX 14(A) per kg body weights i.p., three times per week for 8 weeks.
In this EXAMPLE, control and STZ-diabetic rats were treated with prosaptide TX 14(A) at doses of 20 μg/kg, 200 μg/kg, and 1000 μg/kg body weight, i.p., three times per week for 8 weeks. The rats were weighed at the beginning, midpoint and the end of the experiment and motor nerve conduction (MNCV) and sensor nerve conduction velocity (SNCV) measurements were taken at the three time points.
These deficits were attenuated by thrice weekly treatment (1 mg/kg i.p. for 8 weeks) with prosaptide (58.1±1.2 and 54.9±1.3 respectively).
This EXAMPLE was designed to determine whether prosaptide could also reverse conduction deficits and hyperalgesia in the formalin test pain model once these disorders are established in diabetic rats. SNCV was measured before onset of diabetes and 4-8 weeks later in groups of control, untreated diabetic and prosaptide-treated (200 μg/kg i.p. thrice weekly for the last 4 weeks) diabetic rats. Flinch responses to injection of formalin (50 μl or 0.5% or 5.0% solution) were followed for 60 min in control, 8 week untreated diabetic, 8 week diabetic treated with prosaptide (200 μg/kg i.p.) 30 min pre-test and 8 week diabetic treated with prosaptide (200 μg/kg i.p.) thrice weekly for the last 4 weeks (the last treatment being 48-72 hr pre-test).

Chung model rats = assay: Tactile allodynia (von Frey, 50% paw withdrawal threshold) after bolus intrathecal injection in Chung model rats; assay type: in vivo, rat
Protocol: Each of the three peptides were obtained in pure form by chemical synthesis, dissolved in sterile PBS and buffered to a neutral pH.
The surgical procedure previously described by Kim and Chung, supra (1992) was performed on male Sprague-Dawley rats weighing 120 to 150 grams to induce an allodynic state. Briefly, the rats were anesthetized with halothane; subsequently, the left L-5 and L-6 spinal nerves were isolated adjacent to the vertebral column and ligated with 6.0 silk suture distal to the dorsal root ganglion.
After a ten to fourteen day post operative recovery period, a spinal catheter was introduced. Five days following the second surgery, intrathecal drug administration was accomplished using a gear driven micro-injection syringe connected to a spinal catheter inserted through the foramen magnum. Prior to testing, the rats were placed in clear plastic wire meshed cages and allowed to acclimate.
To assess the 50% mechanical threshold for paw withdrawal, a von Frey hair was applied to the hind foot avoiding the foot pad. Each of the von Frey hairs, which are calibrated to bend at increasing log forces, were pressed perpendicularly to the foot with sufficient force to cause slight bending for a duration of approximately six to eight seconds. A positive response was noted if the foot was sharply withdrawn. Six data points were collected for each point with the maximum and minimum stimulus noted for each time point. The resulting pattern of the responses was tabulated, and the 50% response threshold was computed. The graph gives the response to the indicated dosage of peptide given as a single intrathecal bolus injection. The X-axis indicates the time after the injection at which point the hypersensitivity to pressure on the foot pad was measured.

Schwann cells = assay: Schwann cell death in culture (inhibition of demyelination); assay type: cell-based
Description: Reduction of Schwann cell death is correlated with inhibition of demyelination. Schwann cells contain an extensive myelin sheath.

control rats = assay: Formalin test in control rats; assay type: in vivo, rat; settings: single bolus doses of up to 1 mg/kg i.p. 30 min pre-test
neuroblastoma cells = assay: Neurotrophic activity (neurite outgrowth, choline acetyltransferase, cell death); assay type: cell-based
[2] = 1 mg/kg i.p. thrice weekly for 8 weeks, diabetic rats

## T[dA]LIDNNATEEILY [SEQ ID NO:2]
taxol-treated mice
  loss of thermal sensation: effective in inhibiting loss of thermal sensation
[1]; 22 days, compared to control explants
  myelinated axons in the subcortical white matter: significantly more myelinated axons
[1]; day 15
  neurite outgrowth (long projections) in explants: contain many cells with long projections at the periphery of the explant
STZ-diabetic rats; 20 μg treatment group
  thermal response latency: intermediate response
STZ-diabetic rats; listed as prosaptide
  decline in SNCV between weeks 4 and 8 of diabetes: prevents any further decline in SNCV
STZ-diabetic rats; listed as prosaptide TX 14(A)
  decline in SNCV between weeks 4 and 8 of diabetes: halts progressive slowing of sensory conduction
STZ-diabetic rats; 1000 μg per kg i.p., three times per week for 8 weeks
  thermal hypoalgesia: prevented hypoalgesia
STZ-diabetic rats; 1000 μg per kg i.p., three times per week for 8 weeks (EXAMPLE XIV)
  hyperglycemia and loss of body weight: did not prevent hyperglycemia or loss of body weight
STZ-diabetic rats; [2]
  MNCV: 58.1±1.2 m/s
  SNCV: 54.9±1.3 m/s
  thermal response latency (thermal hypoalgesia): 8.8 ± 0.6 s
STZ-diabetic rats; 20, 200 and 1000 μg/kg i.p., three times per week for 8 weeks
  weight loss compared to diabetic animals: significant decreases in weight loss in a dose dependent manner
STZ-diabetic rats; 200 and 1000 μg
  thermal response latency: restored to control non-diabetic levels
STZ-diabetic rats; 200 and 1000 μg/kg, compared to untreated diabetic group and 20 μg/kg
  motor nerve conduction velocities: enhanced motor nerve conduction velocities
STZ-diabetic rats; all treated groups (20, 200, 1000 μg/kg)
  loss of sensory nerve conduction velocity: slower loss of sensory nerve conduction velocity
STZ-diabetic rats; time course study, thrice weekly 20, 200 or 1000 μg i.p.
  thermal hypoalgesia and decline in nerve conduction velocities during 8 weeks of diabetes: attenuated by prosaptide in a dose-dependent manner
Chung model rats; intrathecal bolus
  time of maximum (peak) effect post-injection: 15 to 30 min
Chung model rats; intrathecal bolus, FIG. 2
  time of return to the pre-injection value: ≤ 60 min
Chung model rats; intrathecal bolus, doses of FIG. 2
  tactile allodynia (force threshold): effective in reducing allodynia
Chung model rats; summary statement
  activity in alleviating neuropathic pain as assayed using Chung rats: reduces the painful allodynia; also recorded: alleviate neuropathic pain
Schwann cells
  Schwann cell death: reduces Schwann cell death in a dose-dependent manner
Control rats
  responses to formalin in control rats: without effect on responses to formalin
Neuroblastoma cells
  neurotrophic activity: have neurotrophic activity
